# Laboratory results: PMC7265341, “Quantifying CDK inhibitor selectivity in live cells” (Nature Communications, 2020)
# Where two headings read alike, the source gives them in different places.
# Experiments:
# Assay type in all cases: binding
# [1] = biological target: CDK7 (Homo sapiens, UniProt P50613); assay: NanoBRET live-cell target engagement, NanoLuc-CDK7 in HEK-293; conditions: for CDK7 Occupancy (%): Panel A
# [2] = biological target: CDK4/Cyclin D1 (Homo sapiens, UniProt P11802); assay: NanoBRET live-cell target engagement, NanoLuc-CDK4/Cyclin D1 in HEK-293; conditions: for inhibition at 10 µM: read-out: CDK4/D1 Inhibition at 10µM (%); for IC50: read-out: CDK4/D1 IC50
# [3] = biological target: CDK6/Cyclin D1 (Homo sapiens, UniProt Q00534); assay: NanoBRET live-cell target engagement, NanoLuc-CDK6/Cyclin D1 in HEK-293; conditions: for inhibition at 10 µM: read-out: CDK6/D1 Inhibition at 10µM (%); for CDK6 Occupancy (%): Panel A
# [4] = biological target: CDK9/Cyclin K (Homo sapiens, UniProt P50750); assay: NanoBRET live-cell target engagement, NanoLuc-CDK9/Cyclin K in HEK-293; conditions: 10µM, read-out: CDK9/K Inhibition at 10µM (%)
# [5] = biological target: CDK15/Cyclin Y (Homo sapiens, UniProt Q96Q40); assay: NanoBRET live-cell target engagement, NanoLuc-CDK15/Cyclin Y in HEK-293; conditions: for inhibition at 10 µM: read-out: CDK15/Y Inhibition at 10µM (%), 10µM
# [6] = biological target: CDK14/Cyclin Y (Homo sapiens, UniProt O94921); assay: NanoBRET live-cell target engagement, CDK14-NanoLuc/Cyclin Y in HEK-293; conditions: for inhibition at 10 µM: read-out: CDK14/Y Inhibition at 10µM (%), 10µM
# [7] = biological target: T1, CDK11A/Cyclin L2 (Homo sapiens, UniProt Q9UQ88); assay: NanoBRET live-cell target engagement, CDK11A-NanoLuc/Cyclin L2 in HEK-293; conditions: read-out: CDK11a/L2 Inhibition at 10µM (%), 10µM
# T1 sequence (Q9UQ88 1-783): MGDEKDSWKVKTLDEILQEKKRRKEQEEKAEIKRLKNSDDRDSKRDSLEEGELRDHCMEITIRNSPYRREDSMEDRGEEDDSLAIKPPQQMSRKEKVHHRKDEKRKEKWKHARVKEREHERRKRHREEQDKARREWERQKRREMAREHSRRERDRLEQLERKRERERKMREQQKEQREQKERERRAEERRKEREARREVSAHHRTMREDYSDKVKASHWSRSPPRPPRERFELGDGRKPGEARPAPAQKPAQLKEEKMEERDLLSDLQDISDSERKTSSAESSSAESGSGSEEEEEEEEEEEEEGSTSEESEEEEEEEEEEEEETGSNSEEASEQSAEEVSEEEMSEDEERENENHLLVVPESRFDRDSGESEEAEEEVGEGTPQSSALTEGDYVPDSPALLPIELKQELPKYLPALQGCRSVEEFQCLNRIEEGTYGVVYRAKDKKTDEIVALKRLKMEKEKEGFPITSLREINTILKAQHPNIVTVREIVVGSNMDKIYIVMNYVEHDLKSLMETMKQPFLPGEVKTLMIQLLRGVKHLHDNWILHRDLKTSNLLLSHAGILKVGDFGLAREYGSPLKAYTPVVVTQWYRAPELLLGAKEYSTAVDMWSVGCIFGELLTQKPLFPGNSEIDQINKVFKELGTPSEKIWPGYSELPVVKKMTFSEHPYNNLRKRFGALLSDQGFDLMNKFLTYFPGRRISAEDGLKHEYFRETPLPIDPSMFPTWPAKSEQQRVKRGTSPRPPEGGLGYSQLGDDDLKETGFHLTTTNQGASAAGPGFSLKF
# [8] = LOG10([RGB-286638]) 1 LOG10(µM)
# [9] = LOG10([RGB-286638]) -0.43136 LOG10(µM)
# [10] = LOG10([RGB-286638]) -0.90849 LOG10(µM)
# [11] = LOG10([RGB-286638]) -1.38561 LOG10(µM)
# [12] = LOG10([RGB-286638]) -1.86273 LOG10(µM)
# [13] = LOG10([RGB-286638]) -2.33985 LOG10(µM)
# [14] = LOG10([RGB-286638]) -2.81697 LOG10(µM)
# [15] = LOG10([RGB-286638]) -3.29409 LOG10(µM)
# [16] = LOG10([RGB-286638]) -3.77121 LOG10(µM)
# Sequence of CDK7 (P50613 whole entry): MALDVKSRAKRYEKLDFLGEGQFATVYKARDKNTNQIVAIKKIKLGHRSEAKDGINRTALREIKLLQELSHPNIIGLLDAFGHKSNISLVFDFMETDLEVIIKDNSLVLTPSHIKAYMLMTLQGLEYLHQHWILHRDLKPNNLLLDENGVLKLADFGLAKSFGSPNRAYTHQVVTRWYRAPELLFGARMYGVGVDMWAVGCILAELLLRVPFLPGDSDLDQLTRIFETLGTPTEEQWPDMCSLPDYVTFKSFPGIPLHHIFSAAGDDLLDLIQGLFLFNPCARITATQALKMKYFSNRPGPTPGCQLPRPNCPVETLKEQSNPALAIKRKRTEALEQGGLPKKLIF
# Sequence of CDK6/Cyclin D1 (Q00534 whole entry): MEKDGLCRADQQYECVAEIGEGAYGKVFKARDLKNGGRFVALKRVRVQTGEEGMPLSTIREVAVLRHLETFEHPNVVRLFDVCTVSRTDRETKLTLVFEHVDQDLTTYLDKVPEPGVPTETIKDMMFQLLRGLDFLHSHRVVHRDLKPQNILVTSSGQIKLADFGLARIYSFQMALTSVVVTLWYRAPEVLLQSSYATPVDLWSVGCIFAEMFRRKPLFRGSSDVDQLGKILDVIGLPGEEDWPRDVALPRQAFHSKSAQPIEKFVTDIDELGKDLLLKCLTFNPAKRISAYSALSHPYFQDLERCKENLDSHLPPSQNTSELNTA
# Sequence of CDK6/Cyclin D1 (P24385 whole entry partner): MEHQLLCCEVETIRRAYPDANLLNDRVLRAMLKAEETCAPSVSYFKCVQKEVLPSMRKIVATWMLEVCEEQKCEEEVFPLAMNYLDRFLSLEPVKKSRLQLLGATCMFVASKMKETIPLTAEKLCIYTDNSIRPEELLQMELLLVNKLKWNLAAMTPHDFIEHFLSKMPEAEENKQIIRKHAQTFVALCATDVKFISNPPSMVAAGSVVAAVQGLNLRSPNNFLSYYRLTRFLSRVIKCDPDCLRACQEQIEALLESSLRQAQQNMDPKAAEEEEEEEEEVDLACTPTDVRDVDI
# Sequence of CDK14/Cyclin Y (O94921 whole entry): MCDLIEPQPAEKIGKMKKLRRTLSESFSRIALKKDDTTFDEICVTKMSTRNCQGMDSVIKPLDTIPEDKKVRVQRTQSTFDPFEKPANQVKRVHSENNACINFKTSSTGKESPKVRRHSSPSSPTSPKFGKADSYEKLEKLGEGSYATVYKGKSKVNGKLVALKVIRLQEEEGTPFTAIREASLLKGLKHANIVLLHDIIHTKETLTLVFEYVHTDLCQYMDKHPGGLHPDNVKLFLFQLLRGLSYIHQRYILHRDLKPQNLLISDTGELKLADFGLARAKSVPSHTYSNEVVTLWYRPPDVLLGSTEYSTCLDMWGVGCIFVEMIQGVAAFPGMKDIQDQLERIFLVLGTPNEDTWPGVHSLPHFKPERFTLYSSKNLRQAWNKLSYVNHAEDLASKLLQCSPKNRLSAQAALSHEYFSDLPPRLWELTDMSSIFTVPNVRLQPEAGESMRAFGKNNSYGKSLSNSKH
# Sequence of CDK14/Cyclin Y (Q8ND76 whole entry partner): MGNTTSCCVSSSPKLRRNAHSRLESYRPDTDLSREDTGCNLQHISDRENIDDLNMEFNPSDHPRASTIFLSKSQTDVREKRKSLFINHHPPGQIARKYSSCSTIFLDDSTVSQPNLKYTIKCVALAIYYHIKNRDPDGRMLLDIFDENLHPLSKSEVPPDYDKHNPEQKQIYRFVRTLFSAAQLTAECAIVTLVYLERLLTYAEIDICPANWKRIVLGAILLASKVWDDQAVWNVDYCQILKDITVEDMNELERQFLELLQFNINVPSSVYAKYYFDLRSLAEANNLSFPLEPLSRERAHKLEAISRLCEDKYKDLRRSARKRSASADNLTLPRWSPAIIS
# Sequence of CDK4/Cyclin D1 (P11802 whole entry): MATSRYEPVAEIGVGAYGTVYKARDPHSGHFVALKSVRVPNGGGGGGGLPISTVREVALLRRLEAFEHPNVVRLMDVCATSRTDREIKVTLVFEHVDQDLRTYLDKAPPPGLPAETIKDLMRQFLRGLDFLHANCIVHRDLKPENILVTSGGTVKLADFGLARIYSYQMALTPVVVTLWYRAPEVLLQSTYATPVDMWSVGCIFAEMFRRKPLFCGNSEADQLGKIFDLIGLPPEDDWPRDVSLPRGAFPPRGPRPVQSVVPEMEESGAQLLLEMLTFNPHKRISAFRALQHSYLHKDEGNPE
# Sequence of CDK4/Cyclin D1 (P24385 whole entry partner): as the sequence (P24385 whole entry partner) above
# Sequence of CDK15/Cyclin Y (Q96Q40 whole entry): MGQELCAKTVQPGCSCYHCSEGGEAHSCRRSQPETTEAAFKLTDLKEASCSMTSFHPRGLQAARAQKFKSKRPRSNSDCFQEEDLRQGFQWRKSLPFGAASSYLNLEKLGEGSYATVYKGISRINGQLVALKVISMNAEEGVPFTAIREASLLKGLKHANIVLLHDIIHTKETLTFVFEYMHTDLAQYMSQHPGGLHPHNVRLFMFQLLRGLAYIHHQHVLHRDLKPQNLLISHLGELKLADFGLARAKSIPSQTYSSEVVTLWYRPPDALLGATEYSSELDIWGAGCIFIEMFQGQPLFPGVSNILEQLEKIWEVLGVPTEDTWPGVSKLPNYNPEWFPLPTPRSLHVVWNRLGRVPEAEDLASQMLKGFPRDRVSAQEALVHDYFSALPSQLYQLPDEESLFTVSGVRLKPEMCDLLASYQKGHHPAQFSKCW
# Sequence of CDK15/Cyclin Y (Q8ND76 whole entry partner): as the sequence (Q8ND76 whole entry partner) above
# Sequence of CDK9/Cyclin K (P50750 whole entry): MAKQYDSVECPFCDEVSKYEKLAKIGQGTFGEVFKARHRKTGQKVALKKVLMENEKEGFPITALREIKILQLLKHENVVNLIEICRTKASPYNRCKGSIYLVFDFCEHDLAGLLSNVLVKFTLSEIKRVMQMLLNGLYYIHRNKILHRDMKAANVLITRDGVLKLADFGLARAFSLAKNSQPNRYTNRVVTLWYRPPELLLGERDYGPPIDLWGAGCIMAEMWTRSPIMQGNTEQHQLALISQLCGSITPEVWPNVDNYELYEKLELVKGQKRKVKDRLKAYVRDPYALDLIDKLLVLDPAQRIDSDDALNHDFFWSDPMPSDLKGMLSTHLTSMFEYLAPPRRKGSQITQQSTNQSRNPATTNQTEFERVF
# Sequence of CDK9/Cyclin K (O75909 whole entry partner): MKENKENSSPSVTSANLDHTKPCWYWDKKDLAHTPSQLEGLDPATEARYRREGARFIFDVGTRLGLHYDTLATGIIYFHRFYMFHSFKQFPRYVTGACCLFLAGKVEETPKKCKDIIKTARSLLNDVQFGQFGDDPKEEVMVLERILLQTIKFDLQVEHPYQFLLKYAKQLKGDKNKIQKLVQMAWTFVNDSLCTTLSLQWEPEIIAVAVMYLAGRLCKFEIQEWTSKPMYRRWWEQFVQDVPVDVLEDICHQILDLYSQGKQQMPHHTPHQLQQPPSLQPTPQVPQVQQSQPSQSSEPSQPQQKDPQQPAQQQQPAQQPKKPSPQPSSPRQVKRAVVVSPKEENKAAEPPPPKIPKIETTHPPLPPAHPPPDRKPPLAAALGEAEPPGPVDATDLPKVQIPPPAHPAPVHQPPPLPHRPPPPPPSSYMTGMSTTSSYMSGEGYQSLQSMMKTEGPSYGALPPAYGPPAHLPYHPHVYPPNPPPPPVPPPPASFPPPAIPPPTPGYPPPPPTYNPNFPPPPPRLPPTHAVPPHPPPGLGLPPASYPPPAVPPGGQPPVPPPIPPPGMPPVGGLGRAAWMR
compound,measurement,setting,value
COCCN1CCN(Cc2ccc(-c3n[nH]c4c3C(=O)c3c(NC(=O)NN5CCOCC5)cccc3-4)cc2)CC1 [RGB286638],CDK7 Occupancy (%),[1]; [8],97.4684%
same,CDK7 Occupancy (%),[1]; [9],93.9241%
same,CDK7 Occupancy (%),[1]; [10],87.0886%
same,CDK7 Occupancy (%),[1]; [11],72.7848%
same,CDK7 Occupancy (%),[1]; [12],53.2911%
same,CDK7 Occupancy (%),[1]; [13],31.2658%
same,CDK7 Occupancy (%),[1]; [14],12.6582%
same,CDK7 Occupancy (%),[1]; [15],6.329%
same,CDK7 Occupancy (%),[1]; [16],1.266%
same,IC50,"[1]; average (± SEM where n=3), read-out: CDK7 IC50",16 ± 5 nM
same,IC50,"[1]; independent experiment 1, read-out: CDK7 IC50",11 nM
same,IC50,"[1]; independent experiment 2, read-out: CDK7 IC50",11 nM
same,IC50,"[1]; independent experiment 3, read-out: CDK7 IC50",26 nM
same,IC50,"[1]; live HEK-293, 2 h, mean ± S.E.M. (n=3) or mean (n=2), read-out: IC50 for CDK/cyclin complexes, CDK7",12 to 16 nM
same,inhibition at 10 µM,[2]; average of experiments,99.8%
same,inhibition at 10 µM,[2]; independent experiment 1,99.7%
same,inhibition at 10 µM,[2]; independent experiment 2,100%
same,IC50,[2]; average (± SEM where n=3),10 nM
same,IC50,[2]; independent experiment 1,9.6 nM
same,IC50,[2]; independent experiment 2,11 nM
same,inhibition at 10 µM,[3]; average of experiments,99.1%
same,inhibition at 10 µM,[3]; independent experiment 1,98.9%
same,inhibition at 10 µM,[3]; independent experiment 2,99.4%
same,CDK6 Occupancy (%),[3]; LOG10([RGB-286638]) 0.045757 LOG10(µM),96.3121%
same,CDK6 Occupancy (%),[3]; LOG10([RGB-286638]) 0.522879 LOG10(µM),95.6738%
same,CDK6 Occupancy (%),[3]; [8],95.6028%
same,CDK6 Occupancy (%),[3]; [9],95.1064%
same,CDK6 Occupancy (%),[3]; [10],90.4255%
same,CDK6 Occupancy (%),[3]; [11],76.8794%
same,CDK6 Occupancy (%),[3]; [12],49.6454%
same,CDK6 Occupancy (%),[3]; [13],19.8582%
same,CDK6 Occupancy (%),[3]; [14],7.0922%
same,CDK6 Occupancy (%),[3]; [15],2.128%
same,CDK6 Occupancy (%),[3]; [16],0%
same,IC50,"[3]; average (± SEM where n=3), read-out: CDK6/D1 IC50",12 ± 1 nM
same,IC50,"[3]; independent experiment 1, read-out: CDK6/D1 IC50",13 nM
same,IC50,"[3]; independent experiment 2, read-out: CDK6/D1 IC50",9.7 nM
same,IC50,"[3]; independent experiment 3, read-out: CDK6/D1 IC50",14 nM
same,IC50,"[3]; live HEK-293, 2 h, mean ± S.E.M. (n=3) or mean (n=2), read-out: IC50 for CDK/cyclin complexes, CDK6/D1",12 to 16 nM
same,inhibition at 10 µM,[4]; average of experiments,94.7%
same,inhibition at 10 µM,[4]; independent experiment 1,90.7%
same,inhibition at 10 µM,[4]; independent experiment 2,98.8%
same,IC50,"[5]; average (± SEM where n=3), read-out: CDK15/Y IC50",14 nM
same,IC50,"[5]; independent experiment 1, read-out: CDK15/Y IC50",14 nM
same,IC50,"[5]; independent experiment 2, read-out: CDK15/Y IC50",13 nM
same,IC50,"[5]; live HEK-293, 2 h, mean ± S.E.M. (n=3) or mean (n=2), read-out: IC50 for CDK/cyclin complexes, CDK15/Y",14 nM
same,inhibition at 10 µM,[5]; average of experiments,97.4%
same,inhibition at 10 µM,[5]; independent experiment 1,96.5%
same,inhibition at 10 µM,[5]; independent experiment 2,98.2%
same,IC50,"[6]; average (± SEM where n=3), read-out: CDK14/Y IC50",31 nM
same,IC50,"[6]; independent experiment 1, read-out: CDK14/Y IC50",30 nM
same,IC50,"[6]; independent experiment 2, read-out: CDK14/Y IC50",31 nM
same,IC50,"[6]; live HEK-293, 2 h, mean ± S.E.M. (n=3) or mean (n=2), read-out: IC50 for CDK/cyclin complexes, CDK14/Y",31 nM
same,inhibition at 10 µM,[6]; average of experiments,95.9%
same,inhibition at 10 µM,[6]; independent experiment 1,94.1%
same,inhibition at 10 µM,[6]; independent experiment 2,97.8%
same,inhibition at 10 µM,[7]; average of experiments,41.5%
same,inhibition at 10 µM,[7]; independent experiment 1,16.8%
same,inhibition at 10 µM,[7]; independent experiment 2,66.3%
